The target in one assay is T1, PI3K δ (Homo sapiens, UniProt O00329).
T1 construct: purchased Upstate
Briefly: PI3K δ in vitro kinase inhibition assay. The format is biochemical.

A further assay relates to Balb/c splenic B cells. Briefly: B cell activation and proliferation assay (Alamar Blue). The format is cell-based. The following applies: Mus musculus, read-out: B cell proliferation EC50.
The target in another assay is T2, PI3K γ (Homo sapiens, UniProt P48736).
T2 construct: purchased Sigma
Briefly: PI3K γ in vitro kinase inhibition assay. The format is biochemical.

A further assay deals with T3, PI3K α (Homo sapiens, UniProt P42336).
T3 construct: purchased Upstate
Briefly: PI3K α in vitro kinase inhibition assay. The format is biochemical.

A further assay concerns the target T4, PI3K β (Homo sapiens, UniProt P42338).
T4 construct: purchased Upstate
Put plainly: PI3K β in vitro kinase inhibition assay. The format is biochemical.

Where only a bound is given, the exact number is not on record here.

T4 sequence (P42338 whole entry): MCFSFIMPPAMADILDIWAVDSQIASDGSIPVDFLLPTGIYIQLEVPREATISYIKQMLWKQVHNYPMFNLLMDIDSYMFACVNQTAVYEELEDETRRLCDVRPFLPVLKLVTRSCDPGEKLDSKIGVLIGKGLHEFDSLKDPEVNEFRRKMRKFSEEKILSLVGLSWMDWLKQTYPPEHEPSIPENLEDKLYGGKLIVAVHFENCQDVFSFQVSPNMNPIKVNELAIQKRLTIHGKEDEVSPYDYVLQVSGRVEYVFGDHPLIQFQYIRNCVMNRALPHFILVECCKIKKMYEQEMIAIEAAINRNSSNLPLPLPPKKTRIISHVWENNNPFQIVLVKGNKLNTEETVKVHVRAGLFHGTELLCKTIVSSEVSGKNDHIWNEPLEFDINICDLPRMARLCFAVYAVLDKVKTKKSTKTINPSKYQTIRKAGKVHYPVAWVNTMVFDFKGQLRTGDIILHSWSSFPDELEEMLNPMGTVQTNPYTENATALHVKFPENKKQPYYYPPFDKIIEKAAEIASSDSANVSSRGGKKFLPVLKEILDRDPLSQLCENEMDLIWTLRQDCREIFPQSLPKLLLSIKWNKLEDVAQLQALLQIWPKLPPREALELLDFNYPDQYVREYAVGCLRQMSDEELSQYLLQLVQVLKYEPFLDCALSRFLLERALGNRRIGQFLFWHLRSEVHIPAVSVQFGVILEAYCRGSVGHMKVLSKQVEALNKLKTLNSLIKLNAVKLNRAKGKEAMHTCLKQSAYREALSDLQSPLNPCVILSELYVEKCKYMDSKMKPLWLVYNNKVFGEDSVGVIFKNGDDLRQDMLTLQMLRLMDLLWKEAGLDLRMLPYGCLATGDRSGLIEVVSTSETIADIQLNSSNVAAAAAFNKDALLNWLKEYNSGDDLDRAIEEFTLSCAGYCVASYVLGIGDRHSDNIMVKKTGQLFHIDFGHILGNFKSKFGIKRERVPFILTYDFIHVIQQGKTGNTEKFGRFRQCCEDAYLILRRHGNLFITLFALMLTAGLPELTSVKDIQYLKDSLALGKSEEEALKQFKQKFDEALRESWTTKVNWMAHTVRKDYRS
T4 sequence (P27986 whole entry partner): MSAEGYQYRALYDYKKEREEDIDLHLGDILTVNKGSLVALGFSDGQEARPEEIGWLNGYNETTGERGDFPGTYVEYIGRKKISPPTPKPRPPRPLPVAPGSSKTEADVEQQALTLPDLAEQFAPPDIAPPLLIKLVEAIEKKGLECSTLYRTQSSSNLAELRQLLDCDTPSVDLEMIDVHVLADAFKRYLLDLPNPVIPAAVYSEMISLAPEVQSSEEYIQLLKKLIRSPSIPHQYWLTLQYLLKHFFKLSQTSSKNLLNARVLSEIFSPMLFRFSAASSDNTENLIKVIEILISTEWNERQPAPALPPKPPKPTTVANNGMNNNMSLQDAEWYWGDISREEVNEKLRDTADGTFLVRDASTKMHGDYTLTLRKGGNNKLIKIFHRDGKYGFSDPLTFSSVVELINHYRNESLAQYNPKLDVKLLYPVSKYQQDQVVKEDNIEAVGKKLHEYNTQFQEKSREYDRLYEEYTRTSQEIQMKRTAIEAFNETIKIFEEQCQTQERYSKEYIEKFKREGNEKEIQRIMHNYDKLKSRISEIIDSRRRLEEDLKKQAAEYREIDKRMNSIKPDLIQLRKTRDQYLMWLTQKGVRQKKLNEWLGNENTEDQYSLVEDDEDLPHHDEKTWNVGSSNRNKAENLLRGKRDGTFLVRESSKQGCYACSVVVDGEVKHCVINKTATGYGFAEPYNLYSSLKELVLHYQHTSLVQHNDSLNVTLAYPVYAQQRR
T2 sequence (P48736 whole entry): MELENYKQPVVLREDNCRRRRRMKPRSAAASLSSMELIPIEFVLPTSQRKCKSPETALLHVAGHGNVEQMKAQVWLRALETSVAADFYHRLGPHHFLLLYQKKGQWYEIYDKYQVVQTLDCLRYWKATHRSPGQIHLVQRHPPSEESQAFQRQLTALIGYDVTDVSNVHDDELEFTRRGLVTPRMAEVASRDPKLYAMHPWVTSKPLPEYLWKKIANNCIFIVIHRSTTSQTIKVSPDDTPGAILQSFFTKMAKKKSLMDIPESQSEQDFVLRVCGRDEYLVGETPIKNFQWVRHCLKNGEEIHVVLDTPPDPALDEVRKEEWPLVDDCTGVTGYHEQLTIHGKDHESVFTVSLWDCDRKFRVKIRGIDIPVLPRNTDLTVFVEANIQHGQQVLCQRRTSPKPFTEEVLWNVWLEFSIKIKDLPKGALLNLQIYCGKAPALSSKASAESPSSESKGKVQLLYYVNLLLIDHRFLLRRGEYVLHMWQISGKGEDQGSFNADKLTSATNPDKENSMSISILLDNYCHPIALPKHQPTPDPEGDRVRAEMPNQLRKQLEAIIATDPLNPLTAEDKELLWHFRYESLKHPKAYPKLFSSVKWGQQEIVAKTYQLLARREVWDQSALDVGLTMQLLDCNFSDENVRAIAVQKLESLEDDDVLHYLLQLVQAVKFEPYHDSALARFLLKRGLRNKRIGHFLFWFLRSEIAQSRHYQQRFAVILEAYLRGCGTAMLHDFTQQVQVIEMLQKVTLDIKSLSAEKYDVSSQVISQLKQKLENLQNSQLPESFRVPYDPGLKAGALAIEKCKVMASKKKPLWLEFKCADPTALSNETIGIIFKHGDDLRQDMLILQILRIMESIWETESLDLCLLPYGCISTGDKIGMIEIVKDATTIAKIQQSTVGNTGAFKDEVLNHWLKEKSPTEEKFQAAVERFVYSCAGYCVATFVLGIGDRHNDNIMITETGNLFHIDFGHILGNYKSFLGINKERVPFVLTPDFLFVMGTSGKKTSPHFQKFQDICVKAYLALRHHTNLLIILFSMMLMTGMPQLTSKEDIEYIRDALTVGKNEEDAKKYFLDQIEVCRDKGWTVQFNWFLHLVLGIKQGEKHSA
T1 sequence (O00329 whole entry): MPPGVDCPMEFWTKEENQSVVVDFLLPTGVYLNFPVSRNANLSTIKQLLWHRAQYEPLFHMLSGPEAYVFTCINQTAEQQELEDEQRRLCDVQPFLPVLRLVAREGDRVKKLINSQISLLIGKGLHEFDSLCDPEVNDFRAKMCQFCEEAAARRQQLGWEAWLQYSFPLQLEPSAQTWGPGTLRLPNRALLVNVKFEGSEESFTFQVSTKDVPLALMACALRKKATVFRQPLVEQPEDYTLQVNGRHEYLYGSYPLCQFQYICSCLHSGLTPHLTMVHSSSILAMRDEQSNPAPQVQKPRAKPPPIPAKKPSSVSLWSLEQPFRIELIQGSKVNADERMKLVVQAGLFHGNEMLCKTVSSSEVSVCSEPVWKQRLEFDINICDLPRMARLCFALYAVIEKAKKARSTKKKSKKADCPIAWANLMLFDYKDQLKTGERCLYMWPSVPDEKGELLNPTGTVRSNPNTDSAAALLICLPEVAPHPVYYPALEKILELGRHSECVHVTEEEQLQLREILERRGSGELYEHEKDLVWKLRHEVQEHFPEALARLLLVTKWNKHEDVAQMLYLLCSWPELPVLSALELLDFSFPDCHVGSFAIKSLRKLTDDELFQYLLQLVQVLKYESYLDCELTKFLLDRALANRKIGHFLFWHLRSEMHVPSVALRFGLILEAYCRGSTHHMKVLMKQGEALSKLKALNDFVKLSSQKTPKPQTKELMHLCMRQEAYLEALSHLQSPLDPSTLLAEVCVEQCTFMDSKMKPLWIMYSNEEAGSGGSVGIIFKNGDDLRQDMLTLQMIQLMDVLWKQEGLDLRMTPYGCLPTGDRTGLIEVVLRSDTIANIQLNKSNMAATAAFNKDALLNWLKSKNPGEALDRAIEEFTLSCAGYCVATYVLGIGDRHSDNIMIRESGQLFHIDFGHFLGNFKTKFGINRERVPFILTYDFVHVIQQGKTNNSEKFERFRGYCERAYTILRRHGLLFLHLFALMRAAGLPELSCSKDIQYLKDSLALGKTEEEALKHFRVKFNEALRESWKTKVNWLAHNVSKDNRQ
T1 sequence (P27986 whole entry partner): as the sequence (P27986 whole entry partner) above
T3 sequence (P42336 whole entry): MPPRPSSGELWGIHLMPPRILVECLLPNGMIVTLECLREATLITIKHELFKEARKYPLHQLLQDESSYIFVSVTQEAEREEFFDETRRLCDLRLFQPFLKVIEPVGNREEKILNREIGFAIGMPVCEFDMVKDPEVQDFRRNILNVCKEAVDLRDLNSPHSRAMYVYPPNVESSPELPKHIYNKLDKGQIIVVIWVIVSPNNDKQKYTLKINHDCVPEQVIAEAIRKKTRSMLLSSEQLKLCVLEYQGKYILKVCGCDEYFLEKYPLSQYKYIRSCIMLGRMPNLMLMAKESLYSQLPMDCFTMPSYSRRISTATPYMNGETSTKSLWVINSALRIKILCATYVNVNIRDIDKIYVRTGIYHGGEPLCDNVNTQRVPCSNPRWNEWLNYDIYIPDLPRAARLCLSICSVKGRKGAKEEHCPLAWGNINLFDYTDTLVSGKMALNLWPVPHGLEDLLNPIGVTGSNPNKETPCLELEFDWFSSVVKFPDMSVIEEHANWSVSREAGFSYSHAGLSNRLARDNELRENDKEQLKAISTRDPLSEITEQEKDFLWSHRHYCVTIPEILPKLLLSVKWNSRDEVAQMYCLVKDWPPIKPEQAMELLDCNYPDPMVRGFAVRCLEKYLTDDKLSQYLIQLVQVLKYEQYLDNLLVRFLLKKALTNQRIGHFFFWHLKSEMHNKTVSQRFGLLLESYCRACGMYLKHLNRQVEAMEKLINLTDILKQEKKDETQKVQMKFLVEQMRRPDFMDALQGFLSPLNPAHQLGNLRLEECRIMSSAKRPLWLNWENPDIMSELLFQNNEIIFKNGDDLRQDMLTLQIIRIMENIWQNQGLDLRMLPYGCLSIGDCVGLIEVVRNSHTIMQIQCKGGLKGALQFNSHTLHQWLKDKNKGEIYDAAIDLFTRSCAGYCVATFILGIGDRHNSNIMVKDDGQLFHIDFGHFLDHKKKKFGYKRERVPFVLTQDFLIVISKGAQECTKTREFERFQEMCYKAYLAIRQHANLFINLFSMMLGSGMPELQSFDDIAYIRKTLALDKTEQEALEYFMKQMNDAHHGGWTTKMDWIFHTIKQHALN
T3 sequence (P27986 whole entry partner): as the sequence (P27986 whole entry partner) above
Procedure for Balb/c splenic B cells: The assay is performed in a 96 well microtiter plate using Alamar Blue reduction. Balb/c splenic B cells are purified over a Ficoll-Paque™ PLUS gradient followed by magnetic cell separation using a MACS B cell Isolation Kit (Miletenyi). Cells are plated in 90 ul at 50,000 cells/well in B Cell Media (RPMI+10% FBS+Penn/Strep+50 uM bME+5 mM HEPES). A compound disclosed herein is diluted in B Cell Media and added in a 10 ul volume. Plates are incubated for 30 min at 37 C and 5% CO2 (0.2% DMSO final concentration). A 50 ul B cell stimulation cocktail is then added containing either 10 ug/ml LPS or 5 ug/ml F(ab′)2 Donkey anti-mouse IgM plus 2 ng/ml recombinant mouse IL4 in B Cell Media. […] A volume of 15 uL of Alamar Blue reagent is added to each well and plates are incubated for 5 hours at 37 C and 5% CO2. Alamar Blue fluoresce is read at 560Ex/590Em, and IC50 or EC50 values are calculated using GraphPad Prism 5.
Procedure for PI3K α: (§1) IC50 values are measured using either a standard TLC assay for lipid kinase activity (described below) or a high-throughput membrane capture assay. Kinase reactions are performed by preparing a reaction mixture containing kinase, inhibitor (2% DMSO final concentration), buffer (25 mM HEPES, pH 7.4, 10 mM MgCl2), and freshly sonicated phosphatidylinositol (100 μg/ml). Reactions are initiated by the addition of ATP containing 10 μCi of γ-32P-ATP to a final concentration 10 or 100 μM and allowed to proceed for 5 minutes at room temperature. For TLC analysis, reactions are then terminated by the addition of 105 μl 1N HCl followed by 160 μl CHCl3:MeOH (1:1). The biphasic mixture is vortexed, briefly centrifuged, and the organic phase is transferred to a new tube using a gel loading pipette tip precoated with CHCl3. This extract is spotted on TLC plates and developed for 3-4 hours in a 65:35 solution of n-propanol:1M acetic acid. The TLC plates are then dried, exposed to a phosphorimager screen (Storm, Amersham), and quantitated.
(§2) Briefly, the assay is a time resolved FRET assay that indirectly measures PIP3 product formed by the activity of a PI3-K. The kinase reaction is performed in a microtiter plate (e.g., a 384 well microtiter plate). The total reaction volume is approximately 20 ul per well. In the first step, each well receives 2 ul of test compound in 20% dimethylsulphoxide resulting in a 2% DMSO final concentration. Next, approximately 14.5 ul of a kinase/PIP2 mixture (diluted in 1× reaction buffer) is added per well for a final concentration of 0.25-0.3 ug/ml kinase and 10 uM PIP2. […] To start the reaction, 3.5 ul of ATP (diluted in 1× reaction buffer) is added per well for a final concentration of 10 uM ATP. The plate is sealed and incubated for 1 hour at room temperature. The reaction is stopped by adding 5 ul of Stop Solution per well and then 5 μl of Detection Mix is added per well. The plate is sealed, incubated for 1 hour at room temperature, and then read on an appropriate plate reader. Data is analyzed and IC50s are generated using GraphPad Prism 5.
Procedure for PI3K β: as §1, §2
Procedure for PI3K γ: as §1, §2
Procedure for PI3K δ: as §1, §2

For orientation: IC50 means the point on the concentration scale where inhibition reaches its midpoint. A low value points to greater potency. Regarding `Cc1csc2nc(Cn3nc(Cl)c4c(N)ncnc43)n(-c3ccccc3C(F)(F)F)c(=O)c12` [Compound 280], the IC50 against PI3K δ is under 0.1 µM; against PI3K γ it was under 1 µM; on PI3K α, over 10 µM; on PI3K β, over 10 µM. The EC50 with Balb/c splenic B cells was under 0.1 µM.
For the compound `Cc1csc2nc(Cn3nc(C#C[C@@H](C)O)c4c(N)ncnc43)n(-c3ncccc3C(F)(F)F)c(=O)c12` [Compound 282], the IC50 is under 0.1 µM at PI3K δ, under 10 µM against PI3K γ, over 10 µM against PI3K α and under 10 µM on PI3K β. In the assay on Balb/c splenic B cells, the EC50 is under 0.1 µM.
As for `Cc1ccccc1-n1c(Cn2nc(-c3cc(O)cc(F)c3)c3c(N)ncnc32)nc2nccc(C)c2c1=O` [Compound 200], the IC50 is under 1 µM against PI3K δ, over 10 µM at PI3K γ, over 10 µM against PI3K α and over 10 µM against PI3K β. Further, in the assay on Balb/c splenic B cells, the EC50 is under 10 µM.
For `Cc1ccccc1-n1c(Cn2nc(C)c3c(N)ncnc32)nc2scc(C)c2c1=O` [Compound 246], the IC50 on PI3K δ was under 0.1 µM; against PI3K γ it was under 0.1 µM; at PI3K α, over 10 µM; against PI3K β, over 10 µM. Also, in the assay with Balb/c splenic B cells, the EC50 was under 1 µM.
Regarding `Cc1cccnc1-n1c(Cn2nc(-c3cc(O)cc(F)c3)c3c(N)ncnc32)nc2scc(C)c2c1=O` [Compound 297], the IC50 against PI3K δ was under 0.1 µM; against PI3K γ it was over 10 µM; against PI3K α, over 10 µM; against PI3K β, under 10 µM. Further, the EC50 with Balb/c splenic B cells was under 0.1 µM.
Regarding `Cc1csc2nc(Cn3nc(-c4cc(O)cc(F)c4)c4c(N)ncnc43)n(-c3ccccc3F)c(=O)c12` [Compound 258], the IC50 against PI3K δ is under 0.1 µM; on PI3K γ it was under 0.1 µM; on PI3K α, over 10 µM; against PI3K β, over 10 µM. Besides, the EC50 in the assay with Balb/c splenic B cells is under 0.1 µM.
For `Cc1ccccc1-n1c(Cn2nc(C#CC3CC3)c3c(N)ncnc32)cc2nccc(C)c2c1=O` [Compound 225], the IC50 on PI3K δ was under 1 µM; against PI3K γ it was over 10 µM; against PI3K α, over 10 µM; against PI3K β, over 10 µM. Further, the EC50 with Balb/c splenic B cells is under 1 µM.
On to `Cc1ccccc1-n1c(Cn2nc(-c3ccc(O)c(F)c3)c3c(N)ncnc32)cc2nccc(C)c2c1=O` [Compound 226], for which the IC50 on PI3K δ is under 0.1 µM; at PI3K γ, under 1 µM; at PI3K α, over 10 µM; against PI3K β, over 10 µM. Besides, the EC50 in the assay with Balb/c splenic B cells was under 1 µM.
Regarding `Cc1ccccc1-n1c(Cn2nc(C#CC3CC3)c3c(N)ncnc32)nc2nccc(C)c2c1=O` [Compound 202], the IC50 against PI3K δ is under 1 µM; against PI3K γ, over 10 µM; on PI3K α, over 10 µM; on PI3K β, over 10 µM. In the assay with Balb/c splenic B cells, the EC50 is under 10 µM.
With `Cc1nn(Cc2nc3nccc(C)c3c(=O)n2-c2ccccc2F)c2ncnc(N)c12` [Compound 210], the IC50 against PI3K δ is under 10 µM; against PI3K γ, over 10 µM; against PI3K α, over 10 µM; on PI3K β, over 10 µM. In addition, the EC50 with Balb/c splenic B cells is under 10 µM.
As for `CCc1ccccc1-n1c(Cn2nc(Br)c3c(N)ncnc32)nc2scc(C)c2c1=O` [Compound 283], the IC50 against PI3K δ was under 0.1 µM; against PI3K γ, under 0.1 µM; at PI3K α, over 10 µM; at PI3K β, under 10 µM. In addition, the EC50 with Balb/c splenic B cells is under 0.1 µM.
Turning to `Cc1ccnc2nc(Cn3nc(C#CC4CC4)c4c(N)ncnc43)n(-c3ccccc3Cl)c(=O)c12` [Compound 208], the IC50 is under 10 µM against PI3K δ, over 10 µM against PI3K γ, over 10 µM at PI3K α and over 10 µM against PI3K β. For the same compound, in the assay on Balb/c splenic B cells, the EC50 was under 10 µM.
With `Cc1ccccc1-n1c(Cn2nc(Br)c3c(N)ncnc32)nc2sc(C)c(C)c2c1=O` [Compound 301], the IC50 at PI3K δ is under 0.1 µM; at PI3K γ, over 10 µM; on PI3K α, over 10 µM; against PI3K β it was over 10 µM.

(Values after patent US9822131B2, “Certain chemical entities, compositions and methods” (Intellikine LLC, priority 2008, dated 2017).)
